Measured values reported in PubChem BioAssay (NCI).
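Exposure lasted 48 hours, with cells grown in 96-well plates and compounds tested at five concentrations. Abbreviation: GI50, concentration required for 50% inhibition of growth. At the TGI there is no net growth.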

What was measured:
Assay in all cases: growth of human tumour cells (NCI), 48 h
BT-549 breast = system: BT-549 breast
NCI-H460 lung = system: NCI-H460 lung
CAKI-1 renal = system: CAKI-1 renal
HCT-15 colon = system: HCT-15 colon
SK-MEL-5 melanoma = system: SK-MEL-5 melanoma
OVCAR-3 ovarian = system: OVCAR-3 ovarian
NCI/ADR-RES ovarian = system: NCI/ADR-RES ovarian
NCI-H226 lung = system: NCI-H226 lung
SF-295 CNS = system: SF-295 CNS
SNB-75 CNS = system: SNB-75 CNS
A549 NSCLC = system: A549 NSCLC
UO-31 renal = system: UO-31 renal
M14 melanoma = system: M14 melanoma
SNB-19 CNS = system: SNB-19 CNS
EKVX NSCLC = system: EKVX NSCLC
OVCAR-5 ovarian = system: OVCAR-5 ovarian
ACHN renal = system: ACHN renal
SN12C renal = system: SN12C renal
SK-MEL-2 melanoma = system: SK-MEL-2 melanoma
SK-MEL-28 melanoma = system: SK-MEL-28 melanoma
HOP-92 NSCLC = system: HOP-92 NSCLC
UACC-62 melanoma = system: UACC-62 melanoma
UACC-257 melanoma = system: UACC-257 melanoma
MDA-MB-435 = system: MDA-MB-435
OVCAR-4 ovarian = system: OVCAR-4 ovarian
K-562 leukemia = system: K-562 leukemia
MDA-MB-231 breast = system: MDA-MB-231 breast
RXF 393 renal = system: RXF 393 renal
SK-OV-3 ovarian = system: SK-OV-3 ovarian
U251 CNS = system: U251 CNS
DU-145 prostate = system: DU-145 prostate
HOP-62 NSCLC = system: HOP-62 NSCLC
SF-539 CNS = system: SF-539 CNS
TK-10 renal = system: TK-10 renal
T-47D breast = system: T-47D breast
SF-268 CNS = system: SF-268 CNS
SW-620 colon = system: SW-620 colon
NCI-H23 lung = system: NCI-H23 lung
786-0 renal = system: 786-0 renal
HS 578T breast = system: HS 578T breast
HCT-116 colon = system: HCT-116 colon
COLO 205 colon = system: COLO 205 colon
A498 renal = system: A498 renal
KM12 colon = system: KM12 colon
MCF7 breast = system: MCF7 breast
PC-3 prostate = system: PC-3 prostate
OVCAR-8 ovarian = system: OVCAR-8 ovarian
HCC-2998 colon = system: HCC-2998 colon
HT29 colon = system: HT29 colon
LOX IMVI melanoma = system: LOX IMVI melanoma

CN(CCCNC(=O)CCOCCOCCOCCNC(=O)Cc1ccc2ccc3cccc4ccc1c2c34)CCCNc1cc(-c2ccc3ccccc3c2)nc2ccccc12
GI50 (BT-549 breast): 2010 nM | TGI (BT-549 breast): 4680 nM | GI50 (NCI-H460 lung): 520 nM | TGI (NCI-H460 lung): 1020 nM | GI50 (CAKI-1 renal): 1060 nM | TGI (CAKI-1 renal): 3340 nM | GI50 (HCT-15 colon): 1190 nM | TGI (HCT-15 colon): 2810 nM | GI50 (SK-MEL-5 melanoma): 541 nM | TGI (SK-MEL-5 melanoma): 1010 nM | GI50 (OVCAR-3 ovarian): 572 nM | TGI (OVCAR-3 ovarian): 1170 nM | GI50 (NCI/ADR-RES ovarian): 4220 nM | TGI (NCI/ADR-RES ovarian): 10600 nM | GI50 (NCI-H226 lung): 3940 nM | TGI (NCI-H226 lung): 13300 nM | GI50 (SF-295 CNS): 1570 nM | TGI (SF-295 CNS): 3750 nM | GI50 (SNB-75 CNS): 510 nM | TGI (SNB-75 CNS): 994 nM | GI50 (A549 NSCLC): 629 nM | TGI (A549 NSCLC): 1740 nM | GI50 (UO-31 renal): 5100 nM | TGI (UO-31 renal): 13600 nM | GI50 (M14 melanoma): 591 nM | TGI (M14 melanoma): 1140 nM | GI50 (SNB-19 CNS): 510 nM | TGI (SNB-19 CNS): 991 nM | GI50 (EKVX NSCLC): 480 nM | TGI (EKVX NSCLC): 959 nM | GI50 (OVCAR-5 ovarian): 635 nM | TGI (OVCAR-5 ovarian): 1180 nM | GI50 (ACHN renal): 823 nM | TGI (ACHN renal): 2200 nM | GI50 (SN12C renal): 3590 nM | TGI (SN12C renal): 8440 nM | GI50 (SK-MEL-2 melanoma): 4840 nM | TGI (SK-MEL-2 melanoma): 13200 nM | GI50 (SK-MEL-28 melanoma): 191 nM | TGI (SK-MEL-28 melanoma): 347 nM | GI50 (HOP-92 NSCLC): 380 nM | TGI (HOP-92 NSCLC): 2220 nM | GI50 (UACC-62 melanoma): 1120 nM | TGI (UACC-62 melanoma): 4550 nM | GI50 (UACC-257 melanoma): 478 nM | TGI (UACC-257 melanoma): 908 nM | GI50 (MDA-MB-435): 108 nM | TGI (MDA-MB-435): 403 nM | GI50 (OVCAR-4 ovarian): 538 nM | TGI (OVCAR-4 ovarian): 1180 nM | GI50 (K-562 leukemia): 66.8 nM | TGI (K-562 leukemia): 146 nM | GI50 (MDA-MB-231 breast): 546 nM | TGI (MDA-MB-231 breast): 1060 nM | GI50 (RXF 393 renal): 507 nM | TGI (RXF 393 renal): 963 nM | GI50 (SK-OV-3 ovarian): 634 nM | TGI (SK-OV-3 ovarian): 1200 nM | GI50 (U251 CNS): 472 nM | TGI (U251 CNS): 938 nM | GI50 (DU-145 prostate): 561 nM | TGI (DU-145 prostate): 1200 nM | GI50 (HOP-62 NSCLC): 593 nM | TGI (HOP-62 NSCLC): 1120 nM | GI50 (SF-539 CNS): 526 nM | TGI (SF-539 CNS): 990 nM | GI50 (TK-10 renal): 3290 nM | TGI (TK-10 renal): 14700 nM | GI50 (T-47D breast): 654 nM | TGI (T-47D breast): 1340 nM | GI50 (SF-268 CNS): 540 nM | TGI (SF-268 CNS): 1140 nM | GI50 (SW-620 colon): 247 nM | TGI (SW-620 colon): 654 nM | GI50 (NCI-H23 lung): 767 nM | TGI (NCI-H23 lung): 2100 nM | GI50 (786-0 renal): 615 nM | TGI (786-0 renal): 1110 nM | GI50 (HS 578T breast): 1590 nM | TGI (HS 578T breast): 11500 nM | GI50 (HCT-116 colon): 130 nM | TGI (HCT-116 colon): 32500 nM | GI50 (COLO 205 colon): 436 nM | TGI (COLO 205 colon): 902 nM | GI50 (A498 renal): 1380 nM | TGI (A498 renal): 2920 nM | GI50 (KM12 colon): 470 nM | TGI (KM12 colon): 1040 nM | GI50 (MCF7 breast): 283 nM | TGI (MCF7 breast): 771 nM | GI50 (PC-3 prostate): 435 nM | TGI (PC-3 prostate): 988 nM | GI50 (OVCAR-8 ovarian): 341 nM | TGI (OVCAR-8 ovarian): 735 nM | GI50 (HCC-2998 colon): 554 nM | TGI (HCC-2998 colon): 1030 nM | GI50 (HT29 colon): 108 nM | TGI (HT29 colon): 419 nM | GI50 (LOX IMVI melanoma): 176 nM | TGI (LOX IMVI melanoma): 333 nM
